Laboratory results: the OligoGym collection
Several values for one entry are separate records, joined by “and”; a condition that tells them apart may be missing. Equal values may be shown once. After the bases stand the sugars from the 5' end (letter, count) and the backbone: PS all phosphorothioate, else s phosphorothioate and o phosphodiester by linkage. Methylation of C is not given here. e = 2'-O-(2-methoxyethyl) (MOE); k = constrained ethyl (cEt); d = 2'-deoxy (DNA)

Molecular target: APOL1
Settings: ASO

TGTTATATTTGATCCT (sugars kkdddddkekeddddd, PS)
target mRNA inhibition (A431, 0.0156 µM): 33% | target mRNA inhibition (A431, 0.04 µM): 50% | target mRNA inhibition (A431, 0.0625 µM): 59% | target mRNA inhibition (A431, 0.25 µM): 81% | target mRNA inhibition (A431, 1 µM): 92% | target mRNA inhibition (A431, 2 µM): 92%

TGTTATATTTGATCCT (sugars kkddddkdkdkddddd, PS)
target mRNA inhibition (A431, 2 µM): 86%

TGTTATATTTGATCCT (sugars kkkddddkdkdkdddd, PS)
target mRNA inhibition (A431, 2 µM): 66%

TTATACCAGTGTCTTC (sugars kdddddkekekddddd, PS)
target mRNA inhibition (A431, 2 µM): 82%

TTATATTTGATCCTCA (sugars kddddkekekeddddd, PS)
target mRNA inhibition (A431, 2 µM): 39%

TTATATTTGATCCTCA (sugars kkddddekekeddddd, PS)
target mRNA inhibition (A431, 2 µM): 96%

TTATATTTGATCCTCA (sugars kkddddkdkdkddddd, PS)
target mRNA inhibition (A431, 0.0156 µM): 15% | target mRNA inhibition (A431, 0.0625 µM): 44% | target mRNA inhibition (A431, 0.25 µM): 76% | target mRNA inhibition (A431, 1 µM): 93% | target mRNA inhibition (A431, 2 µM): 96%

TTATGAAATTATTGGT (sugars k2 d4 e4 k2 d4, PS)
target mRNA inhibition (A431, 2 µM): 35%

TTATTCTCATGGTACA (sugars kkddddkekekddddd, PS)
target mRNA inhibition (A431, 2 µM): 47%

TTATTGCAGGCTCCAA (sugars k4 d9 k3, PS)
target mRNA inhibition (A431, 0.0625 µM): 39% | target mRNA inhibition (A431, 0.25 µM): 47% | target mRNA inhibition (A431, 1 µM): 76%

TTCAGAATTTCCACTA (sugars k4 d9 k3, PS)
target mRNA inhibition (A431, 0.0625 µM): 40% | target mRNA inhibition (A431, 0.25 µM): 67% | target mRNA inhibition (A431, 1 µM): 87%

TTCAGAATTTCCACTA (sugars kdddddkekekddddd, PS)
target mRNA inhibition (A431, 2 µM): 87%

TTCAGAATTTCCACTA (sugars kkddddkekekkdddd, PS)
target mRNA inhibition (A431, 2 µM): 58%

TTCAGCTAAGACCAGT (sugars k4 d9 k3, PS)
target mRNA inhibition (A431, 0.0625 µM): 35% | target mRNA inhibition (A431, 0.25 µM): 71% | target mRNA inhibition (A431, 1 µM): 88%

TTCATGATCATTTGTC (sugars k4 d9 k3, PS)
target mRNA inhibition (A431, 0.0625 µM): 47% | target mRNA inhibition (A431, 0.25 µM): 68% | target mRNA inhibition (A431, 1 µM): 81%

TTCTATTAGAGGGCTA (sugars kdddddkekekddddd, PS)
target mRNA inhibition (A431, 2 µM): 45%

TTCTATTAGAGGGCTA (sugars kddddkekekeddddd, PS)
target mRNA inhibition (A431, 2 µM): 34%

TTCTATTAGAGGGCTA (sugars kkddddkdkdkddddd, PS)
target mRNA inhibition (A431, 2 µM): 87%

TTCTATTAGAGGGCTA (sugars kkddddkekekkdddd, PS)
target mRNA inhibition (A431, 2 µM): 26%

TTCTATTAGAGGGCTA (sugars kkkddddkekekdddd, PS)
target mRNA inhibition (A431, 2 µM): 42%

TTCTCATGGTACAGGA (sugars k3 d4 k3 e1 d5, PS)
target mRNA inhibition (A431, 2 µM): 44%

TTCTCATGGTACAGGA (sugars kkddddekekeddddd, PS)
target mRNA inhibition (A431, 2 µM): 79%

TTCTCATGGTACAGGA (sugars kkddddkekekkdddd, PS)
target mRNA inhibition (A431, 2 µM): 20%

TTCTCATGGTACAGGA (sugars kkkddddkekekdddd, PS)
target mRNA inhibition (A431, 2 µM): 54%

TTGATGAGTAGGTGAG (sugars k4 d9 k3, PS)
target mRNA inhibition (A431, 0.0625 µM): 72% | target mRNA inhibition (A431, 0.25 µM): 81% | target mRNA inhibition (A431, 1 µM): 85%

TTGGGTCAAAAGCGAT (sugars k4 d9 k3, PS)
target mRNA inhibition (A431, 0.0625 µM): 56% | target mRNA inhibition (A431, 0.25 µM): 86% | target mRNA inhibition (A431, 1 µM): 93%

TTGTAAGTGCAACCAA (sugars k3 d4 k3 e1 d5, PS)
target mRNA inhibition (A431, 2 µM): 78%

TTGTAAGTGCAACCAA (sugars kkddddekekeddddd, PS)
target mRNA inhibition (A431, 2 µM): 87%

TTGTAAGTGCAACCAA (sugars kkddddkekekkdddd, PS)
target mRNA inhibition (A431, 2 µM): 54%

TTGTAAGTGCAACCAA (sugars kkkddddkekekdddd, PS)
target mRNA inhibition (A431, 2 µM): 35%

TTTAAACTCAGGTGAC (sugars kddddkekekeddddd, PS)
target mRNA inhibition (A431, 2 µM): 43%

TTTATACCAGTGTCTT (sugars k2 d4 e3 k2 d5, PS)
target mRNA inhibition (A431, 2 µM): 88%

TTTATACCAGTGTCTT (sugars k2 d4 e4 k2 d4, PS)
target mRNA inhibition (A431, 2 µM): 89%

TTTATACCAGTGTCTT (sugars kkkddddkekekdddd, PS)
target mRNA inhibition (A431, 2 µM): 76%

TTTGTAAGTGCAACCA (sugars k3 d5 k3 d5, PS)
target mRNA inhibition (A431, 2 µM): 98%

TTTGTAAGTGCAACCA (sugars k4 d9 k3, PS)
target mRNA inhibition (A431, 0.04 µM): 37% and 23% | target mRNA inhibition (A431, 0.0625 µM): 70% | target mRNA inhibition (A431, 0.25 µM): 91% | target mRNA inhibition (A431, 1 µM): 97% and 96% and 93%

TTTGTAAGTGCAACCA (sugars kddddkekekeddddd, PS)
target mRNA inhibition (A431, 2 µM): 95%

TTTGTAAGTGCAACCA (sugars kekddddeekkddddd, PS)
target mRNA inhibition (A431, 0.0156 µM): 21% | target mRNA inhibition (A431, 0.0625 µM): 46% | target mRNA inhibition (A431, 0.25 µM): 84% | target mRNA inhibition (A431, 1 µM): 96% | target mRNA inhibition (A431, 2 µM): 99%

TTTGTAAGTGCAACCA (sugars kkdddddkekeddddd, PS)
target mRNA inhibition (A431, 0.0156 µM): 36% | target mRNA inhibition (A431, 0.0625 µM): 46% | target mRNA inhibition (A431, 0.25 µM): 78% | target mRNA inhibition (A431, 1 µM): 91% | target mRNA inhibition (A431, 2 µM): 92%

TTTGTAAGTGCAACCA (sugars kkddddkdkdkddddd, PS)
target mRNA inhibition (A431, 2 µM): 99%

TTTGTAAGTGCAACCA (sugars kkkddddkdkdkdddd, PS)
target mRNA inhibition (A431, 2 µM): 71%

TTTTGTAAGTGCAACC (sugars k2 d4 e3 k2 d5, PS)
target mRNA inhibition (A431, 2 µM): 99%

TTTTGTAAGTGCAACC (sugars k4 d9 k3, PS)
target mRNA inhibition (A431, 0.0625 µM): 47% | target mRNA inhibition (A431, 0.25 µM): 84% | target mRNA inhibition (A431, 1 µM): 95%
